Data from ChEMBL document CHEMBL3217443, “The Discovery of Novel 10,11-Dihydro-5H-dibenz[b,f]azepine SIRT2 Inhibitors” (Medchemcomm, 2012).
The source made the active and inactive calls. The rule behind the calls is not given here.

Experiments:
[1] = target: T1, NAD-dependent protein deacetylase sirtuin-1 (Homo sapiens) (UniProt Q96EB6); assay: Inhibition of recombinant human N-tagged GST-SIRT1 fusion protein using fluorescent ZMAL as substrate at 50 uM after 4 hrs by homogeneous fluorescent deacetylase assay
T1 sequence (whole entry): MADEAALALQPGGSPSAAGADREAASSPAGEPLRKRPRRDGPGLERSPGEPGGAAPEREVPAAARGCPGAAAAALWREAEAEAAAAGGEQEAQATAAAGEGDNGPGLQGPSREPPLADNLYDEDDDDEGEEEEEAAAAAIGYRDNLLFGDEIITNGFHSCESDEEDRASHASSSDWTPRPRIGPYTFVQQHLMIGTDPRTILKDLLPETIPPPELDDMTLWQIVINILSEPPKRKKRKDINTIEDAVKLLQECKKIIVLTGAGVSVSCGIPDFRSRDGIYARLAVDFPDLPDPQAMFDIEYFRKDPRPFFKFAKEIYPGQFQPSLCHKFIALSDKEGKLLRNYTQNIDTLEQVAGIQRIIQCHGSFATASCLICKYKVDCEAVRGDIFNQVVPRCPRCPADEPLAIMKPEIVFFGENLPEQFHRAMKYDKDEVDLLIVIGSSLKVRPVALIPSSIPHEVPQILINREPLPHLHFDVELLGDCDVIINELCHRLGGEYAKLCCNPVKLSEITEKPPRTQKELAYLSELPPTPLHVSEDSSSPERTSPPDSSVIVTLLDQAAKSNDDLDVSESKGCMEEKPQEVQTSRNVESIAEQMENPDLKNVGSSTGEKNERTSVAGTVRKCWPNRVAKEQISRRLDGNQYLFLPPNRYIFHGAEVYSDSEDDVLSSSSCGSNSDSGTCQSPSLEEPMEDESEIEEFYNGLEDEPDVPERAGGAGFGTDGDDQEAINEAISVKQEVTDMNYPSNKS

[2] = target: T2, NAD-dependent protein deacetylase sirtuin-2 (Homo sapiens) (UniProt Q8IXJ6); assay: Inhibition of recombinant human full length SIRT2 using fluorescent ZMAL as substrate at 50 uM after 4 hrs by homogeneous fluorescent deacetylase assay
T2 sequence (whole entry): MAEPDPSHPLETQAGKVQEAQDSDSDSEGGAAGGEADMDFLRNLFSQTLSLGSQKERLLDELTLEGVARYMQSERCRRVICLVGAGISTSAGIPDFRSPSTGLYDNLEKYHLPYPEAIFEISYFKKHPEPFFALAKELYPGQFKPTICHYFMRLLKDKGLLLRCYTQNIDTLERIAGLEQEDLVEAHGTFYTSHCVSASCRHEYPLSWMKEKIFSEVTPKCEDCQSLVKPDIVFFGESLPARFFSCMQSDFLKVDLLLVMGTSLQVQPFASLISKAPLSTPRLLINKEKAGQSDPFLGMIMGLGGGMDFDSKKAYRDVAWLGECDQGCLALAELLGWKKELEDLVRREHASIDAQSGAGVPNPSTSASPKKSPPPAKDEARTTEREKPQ

MCF7 [3] = assay: Antiproliferative activity against human MCF7 cells at 30 uM after 24 to 72 hrs; type: functional
MCF7 [4] = assay: Cell cycle arrest in human MCF7 cells assessed as accumulation at sub-G1 phase at 50 uM after 24 hrs by flow cytometry (reference value: 0.3 %); type: functional
MCF7 [5] = assay: Cell cycle arrest in human MCF7 cells assessed as accumulation at G1 phase at 50 uM after 24 hrs by flow cytometry (reference value: 43.5 %); type: functional
MCF7 [6] = assay: Cell cycle arrest in human MCF7 cells assessed as accumulation at S phase at 50 uM after 24 hrs by flow cytometry (reference value: 30.8 %); type: functional
MCF7 [7] = assay: Cell cycle arrest in human MCF7 cells assessed as accumulation at G2-M phase at 50 uM after 24 hrs by flow cytometry (reference value: 22.6 %); type: functional
[8] = target: T3, NAD-dependent protein deacetylase sirtuin-2 (Homo sapiens, UniProt Q8IXJ6); assay: Inhibition of recombinant human full length SIRT2 using fluorescent ZMAL as substrate after 4 hrs by homogeneous fluorescent deacetylase assay
T3 sequence (Q8IXJ6 whole entry): T2 sequence (whole entry)

[9] = target: T1, NAD-dependent protein deacetylase sirtuin-1 (Homo sapiens); assay: Inhibition of recombinant human N-tagged GST-SIRT1 fusion protein using fluorescent ZMAL as substrate at 100 uM after 4 hrs by homogeneous fluorescent deacetylase assay
[10] = target: T1, NAD-dependent protein deacetylase sirtuin-1 (Homo sapiens); assay: Inhibition of recombinant human N-tagged GST-SIRT1 fusion protein using fluorescent ZMAL as substrate at 500 uM after 4 hrs by homogeneous fluorescent deacetylase assay
[11] = target: T1, NAD-dependent protein deacetylase sirtuin-1 (Homo sapiens); assay: Inhibition of SIRT1 in human MCF7 cells assessed as increase in acetylation of H3-K9 up to 50 uM after 24 hrs by Western blot analysis; type: cell-based
[12] = target: T2, NAD-dependent protein deacetylase sirtuin-2 (Homo sapiens); assay: Inhibition of SIRT2 in human MCF7 cells assessed as increase in hyperacetylation of alpha-tubulin up to 50 uM after 24 hrs by Western blot analysis; type: cell-based
[13] = target: T2, NAD-dependent protein deacetylase sirtuin-2 (Homo sapiens); assay: Inhibition of SIRT2 in human MCF7 cells assessed as decrease in phosphorylation of pRB at Ser807/Ser811 at 50 uM after 24 hrs by Western blot analysis; type: cell-based
[14] = target: T1, NAD-dependent protein deacetylase sirtuin-1 (Homo sapiens); assay: Inhibition of SIRT1 in human MCF7 cells assessed as increase in acetylation of p53 at lys 382 at 50 uM after 24 hrs by Western blot analysis; type: cell-based
Homo sapiens = organism: Homo sapiens; assay: Selectivity ratio of IC50 for recombinant human N-tagged GST-SIRT1 fusion protein to IC50 for recombinant human full length SIRT2
[15] = target: T4, NAD-dependent protein deacetylase sirtuin-1 (Homo sapiens, UniProt Q96EB6)
T4 sequence (Q96EB6 whole entry): T1 sequence (whole entry)
Description: Inhibition of recombinant human N-tagged GST-SIRT1 fusion protein using fluorescent ZMAL as substrate after 4 hrs by homogeneous fluorescent deacetylase assay

NC(=O)N1c2ccccc2CCc2ccccc21
inhibition [1]: < 25% | inhibition [2]: < 25%

O=[N+]([O-])c1ccc2c(c1)Nc1ccccc1CC2
inhibition [1]: < 25% | inhibition [2]: < 25%

NC(=O)C1CCCc2c1[nH]c1ccc(Cl)cc21 (stereo not drawn)
Activity (MCF7 [3]): 50% | Activity (MCF7 [4]): 1.2% | Activity (MCF7 [5]): 73.8% | Activity (MCF7 [6]): 10.3% | Activity (MCF7 [7]): 15.7%

NC(=O)c1ccc2c(c1)CCc1ccccc1N2
inhibition [1]: < 25% | inhibition [2]: < 25%

N#Cc1ccc2c(c1)CCc1cc([N+](=O)[O-])ccc1N2
inhibition [1]: < 25% | inhibition [2]: < 25%

NC(=O)c1ccc2c(c1)CCc1cc(Cl)ccc1N2
inhibition [1]: < 25% | inhibition [2]: < 25%

CC(C)(C)NC(=O)c1ccc2c(c1)CCc1ccccc1N2
IC50 [8]: 100 µM | inhibition [1]: < 25%

NC(=O)c1ccc2c(c1)CCc1cccc([N+](=O)[O-])c1N2
inhibition [1]: < 25% | inhibition [2]: < 25%

O=[N+]([O-])c1ccc2c(c1)CCc1ccccc1N2
inhibition [1]: < 25% | inhibition [2]: < 25%

NC(=O)c1cccc2c1Nc1ccccc1CC2
inhibition [1]: < 25% | inhibition [2]: < 25%

CC(C)(C)NS(=O)(=O)c1ccc2c(c1)Nc1ccccc1CC2
IC50 [8]: 29.8 µM | inhibition [9]: 12%

c1ccc2c(c1)CCc1ccccc1N2
inhibition [1]: < 25% | inhibition [2]: < 25%

NC(=O)c1ccc2c(c1)CCc1cc([N+](=O)[O-])ccc1N2
IC50 [8]: 17.6 µM | inhibition [10]: 11% | inhibition [9]: 1% | inhibition [11]: inactive | inhibition [12]: Active | inhibition [13]: Active | inhibition [14]: inactive | Activity (MCF7 [3]): Active | Activity (MCF7 [4]): 0.9% | Activity (MCF7 [5]): 42.2% | Activity (MCF7 [6]): 18% | Activity (MCF7 [7]): 38.9% | Ratio IC50 (Homo sapiens): > 30

CN1c2ccc(C(N)=O)cc2CCc2cc([N+](=O)[O-])ccc21
IC50 [8]: 77.5 µM | inhibition [9]: 23%

NC(=O)c1ccc2c(c1)CCc1cc(C(N)=O)ccc1N2
inhibition [1]: < 25% | inhibition [2]: < 25%

N#Cc1ccc2c(c1)CCc1cc(C#N)ccc1N2
inhibition [1]: < 25% | inhibition [2]: < 25%

NC(=O)c1ccc2c(c1)CCc1cccc(CO)c1N2
inhibition [1]: < 25% | inhibition [2]: < 25%

OCc1ccc2c(c1)CCc1cccc(CO)c1N2
inhibition [1]: < 25% | inhibition [2]: < 25%

CC(NC(=O)c1ccccc1/N=C/c1c(O)ccc2ccccc12)c1ccccc1 (stereo not drawn) [SIRTINOL]
inhibition [11]: inactive | inhibition [12]: inactive | inhibition [14]: Active | Activity (MCF7 [3]): Active | Activity (MCF7 [4]): 0.7% | Activity (MCF7 [5]): 71.5% | Activity (MCF7 [6]): 9.7% | Activity (MCF7 [7]): 18%

NC(=O)c1ccc2c(c1)CCc1cc(N)ccc1N2
inhibition [1]: < 25% | inhibition [2]: < 25%

O=C(Nc1cccc(Br)c1)c1cccc(S(=O)(=O)N2CCCCCC2)c1
inhibition [1]: < 25% | inhibition [11]: inactive | inhibition [14]: Active | Activity (MCF7 [4]): 0.4% | Activity (MCF7 [5]): 54.3% | Activity (MCF7 [6]): 20% | Activity (MCF7 [7]): 25.3%

CC(C(=O)Nc1cccc(/N=C/c2c(O)ccc3ccccc23)c1)c1ccccc1 (stereo not drawn) [SALERMIDE]
IC50 [8]: 45 µM | inhibition [11]: inactive | inhibition [12]: Active | inhibition [14]: Active | Activity (MCF7 [3]): Active | Activity (MCF7 [4]): 1.1% | Activity (MCF7 [5]): 56.1% | Activity (MCF7 [6]): 16.4% | Activity (MCF7 [7]): 26.4% | IC50 [15]: 76 µM

OCc1ccc2c(c1)CCc1cc(CO)ccc1N2
inhibition [1]: < 25% | inhibition [2]: < 25%

N#Cc1ccc2c(c1)CCc1cc(C(N)=O)ccc1N2
inhibition [1]: < 25% | inhibition [2]: < 25%

N#Cc1ccc2c(c1)CCc1ccccc1N2
inhibition [1]: < 25% | inhibition [2]: < 25%
